# Target: T1, full length SGK1 (Homo sapiens, UniProt O00141)
# T1 construct: 125 μM full length SGK1 (Life Technologies Part #PR7358A); purchased Life Technologies PR7358A
# T1 sequence (O00141 1-431): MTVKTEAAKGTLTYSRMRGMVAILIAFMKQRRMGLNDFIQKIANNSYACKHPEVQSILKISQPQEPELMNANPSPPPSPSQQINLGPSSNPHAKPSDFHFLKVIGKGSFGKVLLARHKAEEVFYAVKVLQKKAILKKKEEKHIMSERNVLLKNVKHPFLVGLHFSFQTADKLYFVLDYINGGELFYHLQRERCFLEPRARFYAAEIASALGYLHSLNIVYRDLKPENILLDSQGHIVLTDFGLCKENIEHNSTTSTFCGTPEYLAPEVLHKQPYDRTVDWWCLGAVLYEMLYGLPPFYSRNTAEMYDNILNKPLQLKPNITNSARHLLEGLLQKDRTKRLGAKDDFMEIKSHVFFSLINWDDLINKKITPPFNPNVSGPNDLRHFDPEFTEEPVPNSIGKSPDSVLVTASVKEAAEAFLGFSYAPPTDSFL
# Assay: SGK1 inhibition Assay A (Caliper LabChip electrophoretic separation of fluorescent peptide substrate and phosphorylated product)
# Assay type: biochemical
# Conditions: Assay A; 20 μM ATP, 40 min incubation; read-out: SGK1 IC50
row,SMILES,IC50
1,"CC(=O)N1CC=C(c2cc(N3CCC[C@@H](NC(=O)c4sc(C5CC5)cc4OC4CCN(C(C)C)CC4)C3)c3c(N)ncnn23)C1 [Example 377, (R)-N-(1-(7-(1-acetyl-2,5-dihydro-1H-pyrrol-3-yl)-4-aminopyrrolo[2,1-f][1,2,4]triazin-5-yl)piperidin-3-yl)-5-cyclopropyl-3-((1-isopropylpiperidin-4-yl)oxy)thiophene-2-carboxamide]",35 nM
2,"CC(=O)N1CC=C(c2cc(N3CCC[C@@H](NC(=O)c4sc(C5CC5)cc4OC4CCN(C5CC5)CC4)C3)c3c(N)ncnn23)C1 [Example 378, (R)-N-(1-(7-(1-acetyl-2,5-dihydro-1H-pyrrol-3-yl)-4-aminopyrrolo[2,1-f][1,2,4]triazin-5-yl)piperidin-3-yl)-5-cyclopropyl-3-((1-cyclopropylpiperidin-4-yl)oxy)thiophene-2-carboxamide]",43 nM
3,"COC(=O)N1CC=C(c2cc(N3CCC[C@@H](NC(=O)c4sc(C5CC5)cc4OC4CCNCC4)C3)c3c(N)ncnn23)C1 [Example 379, Methyl (R)-3-(4-amino-5-(3-(5-cyclopropyl-3-(piperidin-4-yloxy)thiophene-2-carboxamido)piperidin-1-yl)pyrrolo[2,1-f][1,2,4]triazin-7-yl)-2,5-dihydro-1H-pyrrole-1-carboxylate]",3 nM
4,"NC(=O)c1ccc(-c2cc(N3CCC[C@@H](NC(=O)c4sc(C5CC5)cc4OC4CCNCC4)C3)c3c(N)ncnn23)cc1F [Example 380, (R)-N-(1-(4-amino-7-(4-carbamoyl-3-fluorophenyl)pyrrolo[2,1-f][1,2,4]triazin-5-yl)piperidin-3-yl)-5-cyclopropyl-3-(piperidin-4-yloxy)thiophene-2-carboxamide]",1 nM
5,"CN1CCC(Oc2cc(C3CC3)sc2C(=O)N[C@@H]2CCCN(c3cc(-c4ccc(C#N)nc4)n4ncnc(N)c34)C2)CC1 [Example 381, (R)-N-(1-(4-amino-7-(6-cyanopyridin-3-yl)pyrrolo[2,1-f][1,2,4]triazin-5-yl)piperidin-3-yl)-5-cyclopropyl-3-((1-methylpiperidin-4-yl)oxy)thiophene-2-carboxamide]",6 nM
6,"CC(C)N1CCC(Oc2cc(C3CC3)sc2C(=O)N[C@@H]2CCCN(c3cc(-c4ccc(C#N)nc4)n4ncnc(N)c34)C2)CC1 [Example 382, (R)-N-(1-(4-amino-7-(6-cyanopyridin-3-yl)pyrrolo[2,1-f][1,2,4]triazin-5-yl)piperidin-3-yl)-5-cyclopropyl-3-((1-isopropylpiperidin-4-yl)oxy)thiophene-2-carboxamide]",5 nM
7,"N#Cc1ccc(-c2cc(N3CCC[C@@H](NC(=O)c4sc(Cl)cc4OC4CN(CC(F)F)C4)C3)c3c(N)ncnn23)cn1 [Example 383, (R)—N-(1-(4-amino-7-(6-cyanopyridin-3-yl)pyrrolo[2,1-f][1,2,4]triazin-5-yl)piperidin-3-yl)-5-chloro-3-((1-(2,2-difluoroethyl)azetidin-3-yl)oxy)thiophene-2-carboxamide]",25 nM
8,"CC(=O)N1CC=C(c2cc(N3CCC[C@@H](NC(=O)c4sc(Cl)cc4OC4CN(CC(F)F)C4)C3)c3c(N)ncnn23)C1 [Example 384, (R)-N-(1-(7-(1-acetyl-2,5-dihydro-1H-pyrrol-3-yl)-4-aminopyrrolo[2,1-f][1,2,4]triazin-5-yl)piperidin-3-yl)-5-chloro-3-((1-(2,2-difluoroethyl)azetidin-3-yl)oxy)thiophene-2-carboxamide]",57 nM
9,"COC(=O)N1CC=C(c2cc(N3CCC[C@@H](NC(=O)c4sc(Cl)cc4OC4CN(CC(F)F)C4)C3)c3c(N)ncnn23)C1 [Example 385, Methyl (R)-3-(4-amino-5-(3-(5-chloro-3-((1-(2,2-difluoroethyl)azetidin-3-yl)oxy)thiophene-2-carboxamido)piperidin-1-yl)pyrrolo[2,1-f][1,2,4]triazin-7-yl)-2,5-dihydro-1H-pyrrole-1-carboxylate]",21 nM
10,"NC(=O)c1ccc(-c2cc(N3CCC[C@@H](NC(=O)c4sc(Cl)cc4OC4CN(CC(F)F)C4)C3)c3c(N)ncnn23)cc1F [Example 386, (R)-N-(1-(4-amino-7-(4-carbamoyl-3-fluorophenyl)pyrrolo[2,1-f][1,2,4]triazin-5-yl)piperidin-3-vl)-5-chloro-3-((1-(2,2-difluoroethyl)azetidin-3-yl)oxy)thiophene-2-carboxamide]",6 nM
11,"Nc1ncnn2c(-c3ccc(=O)n(CC(F)F)c3)cc(N3CCC[C@@H](NC(=O)c4sc(Cl)cc4OC4CN(CC(F)F)C4)C3)c12 [Example 387, (R)-N-(1-(4-amino-7-(1-(2,2-difluoroethyl)-6-oxo-1,6-dihydropyridin-3-yl)pyrrolo[2,1-f][1,2,4]triazin-5-yl)piperidin-3-yl)-5-chloro-3-((1-(2,2-difluoroethyl)azetidin-3-yl)oxy)thiophene-2-carboxamide]",29 nM
12,"COC(=O)N1CC=C(c2cc(N3CCC[C@@H](NC(=O)c4sc(C5CC5)cc4OC4CNC4)C3)c3c(N)ncnn23)C1 [Example 388, methyl (R)-3-(4-amino-5-(3-(3-(azetidin-3-yloxy)-5-cyclopropylthiophene-2-carboxamido)piperidin-1-yl)pyrrolo[2,1-f][1,2,4]triazin-7-yl)-2,5-dihydro-1H-pyrrole-1-carboxylate]",3 nM
13,"NC(=O)c1ccc(-c2cc(N3CCC[C@@H](NC(=O)c4sc(C5CC5)cc4OC4CNC4)C3)c3c(N)ncnn23)cc1F [Example 389, (R)—N-(1-(4-amino-7-(4-carbamoyl-3-fluorophenyl)pyrrolo[2,1-f][1,2,4]triazin-5-yl)piperidin-3-yl)-3-(azetidin-3-yloxy)-5-cyclopropylthiophene-2-carboxamide]",0.4 nM
14,COc1ccc(-n2cc(OCCN(C)C)c(C(=O)N[C@@H]3CCCN(c4cc(-c5ccc(C#N)nc5)n5ncnc(N)c45)C3)n2)cc1 [Example 392],151 nM
15,"CC(=O)N1CC=C(c2cc(N3CCC[C@@H](NC(=O)c4sc(C(F)F)cc4C4CCNCC4)C3)c3c(N)ncnn23)C1 [Example 393E, (R)—N-(1-(7-(1-acetyl-2,5-dihydro-1H-pyrrol-3-yl)-4-aminopyrrolo[2,1-f][1,2,4]triazin-5-yl)piperidin-3-yl)-5-(difluoromethyl)-3-(piperidin-4-yl)thiophene-2-carboxamide]",162 nM
16,CC(=O)N1CC=C(c2cc(N3CCC[C@@H](NC(=O)c4sc(C(F)F)cc4C4CCN(C)CC4)C3)c3c(N)ncnn23)C1 [Example 393],197 nM
17,"CC(=O)N1CC=C(c2cc(N3CCC[C@@H](NC(=O)c4sc(C(F)F)cc4C4CCN(C(C)C)CC4)C3)c3c(N)ncnn23)C1 [Example 394, (R)-N-(1-(7-(1-acetyl-2,5-dihydro-1H-pyrrol-3-yl)-4-aminopyrrolo[2,1-f][1,2,4]triazin-5-yl)piperidin-3-yl)-5-(difluoromethyl)-3-(1-isopropylpiperidin-4-yl)thiophene-2-]",249 nM
18,"N#Cc1ccc(-c2cc(N3CCC[C@@H](NC(=O)c4sc(C(F)F)cc4C4CCNCC4)C3)c3c(N)ncnn23)cn1 [Example 395, (R)-N-(1-(4-amino-7-(6-cyanopyridin-3-yl)pyrrolo[2,1-f][1,2,4]triazin-5-yl)piperidin-3-yl)-5-(difluoromethyl)-3-(piperidin-4-yl)thiophene-2-carboxamide]",210 nM
19,"CN1CCC(c2cc(C(F)F)sc2C(=O)N[C@@H]2CCCN(c3cc(-c4ccc(C#N)nc4)n4ncnc(N)c34)C2)CC1 [Example 396, (R)-N-(1-(4-amino-7-(6-cyanopyridin-3-yl)pyrrolo[2,1-f][1,2,4]triazin-5-yl)piperidin-3-yl)-5-(difluoromethyl)-3-(1-methylpiperidin-4-yl)thiophene-2-carboxamide]",146 nM
20,"CC(C)N1CCC(c2cc(C(F)F)sc2C(=O)N[C@@H]2CCCN(c3cc(-c4ccc(C#N)nc4)n4ncnc(N)c34)C2)CC1 [Example 397, (R)-N-(1-(4-amino-7-(6-cyanopyridin-3-yl)pyrrolo[2,1-f][1,2,4]triazin-5-yl)piperidin-3-yl)-5-(difluoromethyl)-3-(1-isopropylpiperidin-4-yl)thiophene-2-carboxamide]",134 nM
21,"CC(=O)N1CC=C(c2cc(N3CCC[C@@H](NC(=O)c4sc(C(F)F)cc4C4CCN(C)C4)C3)c3c(N)ncnn23)C1 (stereo partly drawn) [Example 398, N—((R)-1-(7-(1-acetyl-2,5-dihydro-1H-pyrrol-3-yl)-4-aminopyrrolo[2,1-f][1,2,4]triazin-5-yl)piperidin-3-yl)-5-(difluoromethyl)-3-(1-methylpyrrolidin-3-yl)thiophene-2-carboxamide]",246 nM
22,"CC(=O)N1CC=C(c2cc(N3CCC[C@@H](NC(=O)c4sc(C(F)F)cc4C4CCN(C(C)C)C4)C3)c3c(N)ncnn23)C1 (stereo partly drawn) [Example 399, N-((R)-1-(7-(1-acetyl-2,5-dihydro-1H-pyrrol-3-yl)-4-aminopyrrolo[2,1-f][1,2,4]triazin-5-yl)piperidin-3-yl)-5-(difluoromethyl)-3-(1-isopropylpyrrolidin-3-yl)thiophene-2-carboxamide]",310 nM
23,"N#Cc1ccc(-c2cc(N3CCC[C@@H](NC(=O)c4sc(C(F)F)cc4C4CCNC4)C3)c3c(N)ncnn23)cn1 (stereo partly drawn) [Example 400, N-((R)-1-(4-amino-7-(6-cyanopyridin-3-yl)pyrrolo[2,1-f][1,2,4]triazin-5-yl)piperidin-3-yl)-5-(difluoromethyl)-3-(pyrrolidin-3-yl)thiophene-2-carboxamide]",299 nM

# From patent US20260250290A1 (BRISTOL-MYERS SQUIBB COMPANY, priority 2023, published 2026)
